Patent publication US10538497B2, “Compounds as indoleamine 2,3-dioxygenase inhibitors” (Merck Sharp & Dohme Corp., priority 2015, dated 2020)

Experiments:
IDO1 [1] = target: T1, IDO1 (Homo sapiens (Human), UniProt P14902); assay: IDO1 Cellular Assay in Frozen HEK293 Cells Transiently Transfected with Human IDO1; type: cell-based; settings: read-out: IDO1 HEK293 Cell Assay, IC50
IDO1 [2] = target: T1, IDO1; assay: IDO1 Cellular Assay in Hela Cells Stimulated with IFNγ; type: cell-based; settings: Hela cells stimulated with IFNγ 100 ng/mL; read-out: IDO1 HELA Cell Assay, IC50
IDO1 [3] = target: T1, IDO1; assay: IDO1 Enzyme Assay; settings: HIS-tagged recombinant IDO1, 40 nM
[4] = HEK293 cells transiently transfected with human IDO1
[5] = read-out: IDO1 Enzyme Assay, IC50

T1 sequence (P14902 whole entry): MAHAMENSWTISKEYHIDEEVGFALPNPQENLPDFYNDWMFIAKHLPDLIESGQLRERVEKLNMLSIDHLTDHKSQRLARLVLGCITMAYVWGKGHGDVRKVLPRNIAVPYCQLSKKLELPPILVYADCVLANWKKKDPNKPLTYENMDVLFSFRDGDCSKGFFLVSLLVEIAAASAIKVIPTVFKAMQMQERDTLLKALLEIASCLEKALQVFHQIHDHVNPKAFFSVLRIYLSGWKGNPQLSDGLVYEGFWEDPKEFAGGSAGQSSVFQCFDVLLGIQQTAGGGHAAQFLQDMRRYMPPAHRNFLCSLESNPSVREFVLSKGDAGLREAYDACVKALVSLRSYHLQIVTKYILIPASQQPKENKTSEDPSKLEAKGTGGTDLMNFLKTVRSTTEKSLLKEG

IC50 (IDO1 [1]; [4]) [nM]	IC50 (IDO1 [2]) [nM]	IC50 (IDO1 [3]; [5]) [nM]	IC50 (IDO1 [3]; IDO1 Enzyme Assay, IC50, nM) [nM]	Compound	IC50 (IDO1 [1]) [nM]
770	968	1280		CN(C)CCSc1nsnc1/C(=N/O)Nc1ccc(F)c(Br)c1 [Example 209, N-(3-bromo-4-fluorophenyl)-4-{[2-(dimethylamino)ethyl]sulfanyl}-N′-hydroxy-1,2,5-thiadiazole-3-carboximidamide]	
109	91.2	407		NS(=O)(=O)c1ccc(CCSc2nonc2/C(=N/O)Nc2ccc(F)c(Br)c2)cc1 [Example 71, N-(3-bromo-4-fluorophenyl)-N′-hydroxy-4-{[2-(4-sulfamoylphenyl)ethyl]sulfanyl}-1,2,5-oxadiazole-3-carboximidamide]	
130	159	126		OC[C@@H](O)CSc1nonc1/C(=N/O)Nc1ccc(F)c(C(F)(F)F)c1 [Example 165, 4-{[(2R)-2,3-dihydroxypropyl]sulfanyl}-N-[4-fluoro-3-(trifluoromethyl)phenyl]-N′-hydroxy-1,2,5-oxadiazole-3-carboximidamide]	
65.1	34.8	53.9		C[C@@H](O)[C@@H](CO)NC(=O)CSc1nonc1/C(=N/O)Nc1ccc(F)c(Br)c1 [Example 143, 2-({4-[N-(3-bromo-4-fluorophenyl)-N′-hydroxycarbamimidoyl]-1,2,5-oxadiazol-3-yl}sulfanyl)-N-[(1R,2R)-2-hydroxy-1-(hydroxymethyl)propyl]acetamide]	
65.6	56.2	34.5		O=C1NCC(CSc2nonc2/C(=N/O)Nc2ccc(F)c(Br)c2)O1 (stereo not drawn) [Example 124, N-(3-bromo-4-fluorophenyl)-N′-hydroxy-4-{[(2-oxo-1,3-oxazolidin-5-yl)methyl]sulfanyl}-1,2,5-oxadiazole-3-carboximidamide]	
176	153	36.5		CN/C(=C\[N+](=O)[O-])NCCSc1nonc1C(=NO)Nc1ccc(F)c(Br)c1 [Example 60, N-(3-bromo-4-fluorophenyl)-N′-hydroxy-4-[(2-{[(E)-1-(methylamino)-2-nitroethenyl]amino}ethyl)sulfanyl]-1,2,5-oxadiazole-3-carboximidamide]	
110	97.3	142		OC[C@H](O)CSc1nonc1/C(=N/O)Nc1ccc(F)c(C(F)F)c1 [Example 167, N-[3-(difluoromethyl)-4-fluorophenyl]-4-{[(2S)-2,3-dihydroxypropyl]sulfanyl}-N′-hydroxy-1,2,5-oxadiazole-3-carboximidamide]	
87.7	173	87.9		N#Cc1cc(N/C(=N\O)c2nonc2SCCNC(=O)[C@@H]2CC2(F)F)ccc1F [Example 188, (1S)-N-[2-({4-[N-(3-cyano-4-fluorophenyl)-N′-hydroxycarbamimidoyl]-1,2,5-oxadiazol-3-yl}sulfanyl)ethyl]-2,2-difluorocyclopropanecarboxamide]	
114	138	126		OC[C@H](O)CSc1nonc1/C(=N/O)Nc1ccc(F)c(C(F)(F)F)c1 [Example 166, 4-{[(2S)-2,3-dihydroxypropyl]sulfanyl}-N-[4-fluoro-3-(trifluoromethyl)phenyl]-N′-hydroxy-1,2,5-oxadiazole-3-carboximidamide]	
231	283	87.8		O/N=C(\Nc1ccc(F)c(Br)c1)c1nonc1SC1CCNCC1 [Example 72, N-(3-bromo-4-fluorophenyl)-N′-hydroxy-4-(piperidin-4-ylsulfanyl)-1,2,5-oxadiazole-3-carboximidamide]	
133	62.8	154		CCSc1nonc1/C(=N/O)Nc1ccc(F)c(Br)c1 [Example 24, (Z)-N-(3-bromo-4-fluorophenyl)-4-(ethylthio)-N′-hydroxy-1,2,5-oxadiazole-3-carboximidamide]	
412	322	180		N#Cc1cc(N/C(=N\O)c2nonc2SCC(=O)NC2COC2)ccc1F [Example 186, 2-({4-[N-(3-cyano-4-fluorophenyl)-N′-hydroxycarbamimidoyl]-1,2,5-oxadiazol-3-yl}sulfanyl)-N-oxetan-3-ylacetamide]	
309	426	196		CC(=O)N[C@@H](C)CSc1nonc1/C(=N/O)Nc1ccc(F)c(C#N)c1 [Example 180, N-[(1S)-2-({4-[N-(3-cyano-4-fluorophenyl)-N′-hydroxycarbamimidoyl]-1,2,5-oxadiazol-3-yl}sulfanyl)-1-methylethyl]acetamide]	
188	341		169	CC#CCSc1nonc1C(=NO)Nc1ccc(F)c(Br)c1 [Example 161, N-(3-bromo-4-fluorophenyl)-4-(but-2-yn-1-ylsulfanyl)-N′-hydroxy-1,2,5-oxadiazole-3-carboximidamide]	
78.7	558	30		COCCNC(=O)CCSc1nonc1/C(=N/O)Nc1ccc(F)c(Br)c1 [Example 106, 3-({4-[N-(3-bromo-4-fluorophenyl)-N′-hydroxycarbamimidoyl]-1,2,5-oxadiazol-3-yl}sulfanyl)-N-(2-methoxyethyl)propanamide]	
32.9	24.7	36.9		NC(=O)CCSc1nonc1/C(=N/O)Nc1ccc(F)c(Br)c1 [Example 96, 3-({4-[N-(3-bromo-4-fluorophenyl)-N′-hydroxycarbamimidoyl]-1,2,5-oxadiazol-3-yl}sulfanyl)propanamide]	
81.7	153		105	ON=C(Nc1ccc(F)c(Br)c1)c1nonc1SCc1c[nH]cn1 [Example 159, N-(3-bromo-4-fluorophenyl)-N′-hydroxy-4-[(1H-imidazol-4-ylmethyl)sulfanyl]-1,2,5-oxadiazole-3-carboximidamide]	
226	648	170		COC(=O)[C@@H](N)CSc1nonc1/C(=N/O)Nc1ccc(F)c(Br)c1 [Example 48, methyl S-{4-[N-(3-bromo-4-fluorophenyl)-N′-hydroxycarbamimidoyl]-1,2,5-oxadiazol-3-yl}-L-cisteinate]	
60	54.7		38.7	CC(O)CNC(=O)CSc1nonc1C(=NO)Nc1ccc(F)c(Br)c1 (stereo not drawn) [Example 138, 2-({4-[N-(3-bromo-4-fluorophenyl)-N′-hydroxycarbamimidoyl]-1,2,5-oxadiazol-3-yl}sulfanyl)-N-(2-hydroxypropyl)acetamide]	
23.3	26.7	37.7		CN1C[C@@H](CSc2nonc2/C(=N/O)Nc2ccc(F)c(Br)c2)NC1=O [Example 122, N-(3-bromo-4-fluorophenyl)-N′-hydroxy-4-({[(4S)-1-methyl-2-oxoimidazolidin-4-yl]methyl}sulfanyl)-1,2,5-oxadiazole-3-carboximidamide]	
> 10000	4160	136		CC(C)OC(=O)OCOP(=O)(CCSc1nonc1/C(=N/O)Nc1ccc(F)c(Br)c1)OCOC(=O)OC(C)C [Example 10, (Z)-(((2-((4-(N-(3-bromo-4-fluorophenyl)-N′-hydroxycarbamimidoyl)-1,2,5-oxadiazol-3-yl)thio)ethyl)phosphoryl)bis(oxy))bis(methylene) diisopropyl bis(carbonate)]	
269	353	169		CNC(=O)N1CCC(Sc2nonc2/C(=N/O)Nc2ccc(F)c(Br)c2)CC1 [Example 104, 4-({4-[N-(3-bromo-4-fluorophenyl)-N′-hydroxycarbamimidoyl]-1,2,5-oxadiazol-3-yl}sulfanyl)-N-methylpiperidine-1-carboxamide]	
67.7	92.3	28.3		O/N=C(\Nc1ccc(F)c(Br)c1)c1nonc1SC1CCNC1 (stereo not drawn) [Example 66, N-(3-bromo-4-fluorophenyl)-N′-hydroxy-4-(pyrrolidin-3-ylsulfanyl)-1,2,5-oxadiazole-3-carboximidamide]	
64.2	87.9	58.4		CC(O)CSc1nonc1/C(=N/O)Nc1ccc(F)c(Br)c1 (stereo not drawn) [Example 18, (Z)-N-(3-bromo-4-fluorophenyl)-N′-hydroxy-4-((2-hydroxypropyl)thio)-1,2,5-oxadiazole-3-carboximidamide]	
97	148		36.9	O=C(CSc1nonc1C(=NO)Nc1ccc(F)c(Br)c1)NC1CCC1 [Example 114, 2-({4-[N-(3-bromo-4-fluorophenyl)-N′-hydroxycarbamimidoyl]-1,2,5-oxadiazol-3-yl}sulfanyl)-N-cyclobutylacetamide]	
67.5	45.7	99.5		OCCSc1nonc1/C(=N/O)Nc1ccc(F)c(C(F)(F)F)c1 [Example 50, N-[4-fluoro-3-(trifluoromethyl)phenyl]-N′-hydroxy-4-[(2-hydroxyethyl)sulfanyl]-1,2,5-oxadiazole-3-carboximidamide]	
36.4	43.5	51.8		NC(=O)CSc1nonc1/C(=N/O)Nc1ccc(F)c(Br)c1 [Example 77, 2-({4-[N-(3-bromo-4-fluorophenyl)-N′-hydroxycarbamimidoyl]-1,2,5-oxadiazol-3-yl}sulfanyl)acetamide]	

Compound	IC50 (IDO1 [1]; [4]) [nM]	IC50 (IDO1 [2]) [nM]	IC50 (IDO1 [3]; [5]) [nM]	IC50 (IDO1 [3]; IDO1 Enzyme Assay, IC50, nM) [nM]	IC50 (IDO1 [1]) [nM]
CNP(=O)(CCSc1nonc1/C(=N/O)Nc1ccc(F)c(Br)c1)NC [Example 103, 4-({2-[bis(methylamino)phosphoryl]ethyl}sulfanyl)-N-(3-bromo-4-fluorophenyl)-N′-hydroxy-1,2,5-oxadiazole-3-carboximidamide]		32.3	48.5		84.5
